Measurements reported in BigSolDB 2.1.

Compound: COc1ccc(C(=O)O)c(OC)c1
- solubility (mole fraction) (in ethanol, 288.15 K): 0.0116
- solubility (mole fraction) (in ethanol, 293.15 K): 0.0149
- solubility (mole fraction) (in ethanol, 298.15 K): 0.0191
- solubility (mole fraction) (in ethanol, 303.15 K): 0.0244
- solubility (mole fraction) (in ethanol, 308.15 K): 0.0312
- solubility (mole fraction) (in ethanol, 313.15 K): 0.0398
- solubility (mole fraction) (in ethanol, 318.15 K): 0.0507
- solubility (mole fraction) (in ethanol, 323.15 K): 0.0644
- solubility (mole fraction) (in ethyl acetate, 288.15 K): 0.0165
- solubility (mole fraction) (in ethyl acetate, 293.15 K): 0.0205
- solubility (mole fraction) (in ethyl acetate, 298.15 K): 0.0253
- solubility (mole fraction) (in ethyl acetate, 303.15 K): 0.0312
- solubility (mole fraction) (in ethyl acetate, 308.15 K): 0.0382
- solubility (mole fraction) (in ethyl acetate, 313.15 K): 0.0467
- solubility (mole fraction) (in ethyl acetate, 318.15 K): 0.0567
- solubility (mole fraction) (in ethyl acetate, 323.15 K): 0.0687
- solubility (mole fraction) (in isobutanol, 288.15 K): 0.0059
- solubility (mole fraction) (in isobutanol, 293.15 K): 0.0079
- solubility (mole fraction) (in isobutanol, 298.15 K): 0.0105
- solubility (mole fraction) (in isobutanol, 303.15 K): 0.0139
- solubility (mole fraction) (in isobutanol, 308.15 K): 0.0183
- solubility (mole fraction) (in isobutanol, 313.15 K): 0.0239
- solubility (mole fraction) (in isobutanol, 318.15 K): 0.0311
- solubility (mole fraction) (in isobutanol, 323.15 K): 0.0401
- solubility (mole fraction) (in isopropanol, 288.15 K): 0.0059
- solubility (mole fraction) (in isopropanol, 293.15 K): 0.0081
- solubility (mole fraction) (in isopropanol, 298.15 K): 0.0109
- solubility (mole fraction) (in isopropanol, 303.15 K): 0.0147
- solubility (mole fraction) (in isopropanol, 308.15 K): 0.0195
- solubility (mole fraction) (in isopropanol, 313.15 K): 0.0259
- solubility (mole fraction) (in isopropanol, 318.15 K): 0.034
- solubility (mole fraction) (in isopropanol, 323.15 K): 0.0445
- solubility (mole fraction) (in n-butanol, 288.15 K): 0.0086
- solubility (mole fraction) (in n-butanol, 293.15 K): 0.0112
- solubility (mole fraction) (in n-butanol, 298.15 K): 0.0146
- solubility (mole fraction) (in n-butanol, 303.15 K): 0.0188
- solubility (mole fraction) (in n-butanol, 308.15 K): 0.0242
- solubility (mole fraction) (in n-butanol, 313.15 K): 0.0309
- solubility (mole fraction) (in n-butanol, 318.15 K): 0.0393
- solubility (mole fraction) (in n-butanol, 323.15 K): 0.0498
- solubility (mole fraction) (in n-propanol, 288.15 K): 0.0087
- solubility (mole fraction) (in n-propanol, 293.15 K): 0.0114
- solubility (mole fraction) (in n-propanol, 298.15 K): 0.015
- solubility (mole fraction) (in n-propanol, 303.15 K): 0.0195
- solubility (mole fraction) (in n-propanol, 308.15 K): 0.0252
- solubility (mole fraction) (in n-propanol, 313.15 K): 0.0325
- solubility (mole fraction) (in n-propanol, 318.15 K): 0.0417
- solubility (mole fraction) (in n-propanol, 323.15 K): 0.0532
